Measurements as given in patent US10961236B2, “(S)-2-(1-cyclopropylethyl)-5-(4-methyl-2-((6-(2-oxopyrrolidin-1-yl)pyridin-2-yl)amino) thiazol-5-yl)-7-(methylsulfonyl)isoindolin-1-one as a phosphatidylinositol 3-kinase inhibitor” (AstraZeneca AB, priority 2016, dated 2021).

Key:
Assay type in all cases: biochemical
[1] = target: recombinant human PI3Kα (6-His(p110-p85α)) (Homo sapiens (Human), UniProt P42336); test: Enzymatic activity assay for recombinant human PI3Kα (ADP-Glo); conditions: 1.2 nM PI3Kα, 20 μM ATP, 80 μM DiC8-PIP2, ADP-Glo
Method: (§1) Enzymatic Activity Assay for Recombinant Human PI3K α, β, δ and γ.
(§2) The activity of recombinant human PI3Kγ ((aa144-1102)-6His) and PI3Kα, β, δ (6-His(p110-p85α)) was determined by measuring the ADP level after phosphorylation of DiC8-PIP2 using a commercially available ADP-Glo™ kit from Promega. The assay was carried out in white low volume 384 well plates in a final volume of 14 μl at R.T. The assay conditions contained the following: 50 mM Tris buffer pH 7.4, 2.1 mM DTT, 3 mM MgCl2, 0.05% CHAPS, 20 μM ATP, 80 μM DiC8-PIP2 and 1.2 nM PI3Kα, β, γ or 0.6 nM PI3Kδ. Potential inhibitors were made up in DMSO and then diluted in the assay to give a final concentration of not exceeding 1% (v/v) DMSO. […] Routinely, inhibitors were pre-incubated with 3 μl of enzyme for 15 min prior to the addition of 2 μl substrate mixture for a further 60 min enzyme reaction. The phosphorylation was stopped with the addition of 3 μl ADP-Glo™ reagent (stop solution) followed by a 40 min incubation. Prior to detection 6 μl of ADP-Glo™ Kinase Detection Reagent was added and the plates were read in a micro plate reader using a Luminescence filter. All additions were followed by a short centrifugation step.

[2] = target: recombinant human PI3Kβ (6-His(p110-p85α)) (Homo sapiens (Human), UniProt P42338); test: Enzymatic activity assay for recombinant human PI3Kβ (ADP-Glo); conditions: 1.2 nM PI3Kβ, 20 μM ATP, 80 μM DiC8-PIP2, ADP-Glo
Method: as §1, §2

[3] = target: recombinant human PI3Kδ (6-His(p110-p85α)) (Homo sapiens (Human), UniProt O00329); test: Enzymatic activity assay for recombinant human PI3Kδ (ADP-Glo); conditions: 0.6 nM PI3Kδ, 20 μM ATP, 80 μM DiC8-PIP2, ADP-Glo
Method: as §1
as §2, with “PI3Kδ.” for “PI3Kδ. Potential inhibitors were made up in DMSO and then diluted in the assay to give a final concentration of not exceeding 1% (v/v) DMSO.”

[4] = target: recombinant human PI3Kγ ((aa144-1102)-6His) (Homo sapiens (Human), UniProt P48736); test: Enzymatic activity assay for recombinant human PI3Kγ (ADP-Glo); conditions: 1.2 nM PI3Kγ, 20 μM ATP, 80 μM DiC8-PIP2, ADP-Glo
Method: as §1
as §2, with “PI3Kδ.” for “PI3Kδ. Potential inhibitors were made up in DMSO and then diluted in the assay to give a final concentration of not exceeding 1% (v/v) DMSO.”

Sequence of recombinant human PI3Kδ (6-His(p110-p85α)) (O00329 whole entry): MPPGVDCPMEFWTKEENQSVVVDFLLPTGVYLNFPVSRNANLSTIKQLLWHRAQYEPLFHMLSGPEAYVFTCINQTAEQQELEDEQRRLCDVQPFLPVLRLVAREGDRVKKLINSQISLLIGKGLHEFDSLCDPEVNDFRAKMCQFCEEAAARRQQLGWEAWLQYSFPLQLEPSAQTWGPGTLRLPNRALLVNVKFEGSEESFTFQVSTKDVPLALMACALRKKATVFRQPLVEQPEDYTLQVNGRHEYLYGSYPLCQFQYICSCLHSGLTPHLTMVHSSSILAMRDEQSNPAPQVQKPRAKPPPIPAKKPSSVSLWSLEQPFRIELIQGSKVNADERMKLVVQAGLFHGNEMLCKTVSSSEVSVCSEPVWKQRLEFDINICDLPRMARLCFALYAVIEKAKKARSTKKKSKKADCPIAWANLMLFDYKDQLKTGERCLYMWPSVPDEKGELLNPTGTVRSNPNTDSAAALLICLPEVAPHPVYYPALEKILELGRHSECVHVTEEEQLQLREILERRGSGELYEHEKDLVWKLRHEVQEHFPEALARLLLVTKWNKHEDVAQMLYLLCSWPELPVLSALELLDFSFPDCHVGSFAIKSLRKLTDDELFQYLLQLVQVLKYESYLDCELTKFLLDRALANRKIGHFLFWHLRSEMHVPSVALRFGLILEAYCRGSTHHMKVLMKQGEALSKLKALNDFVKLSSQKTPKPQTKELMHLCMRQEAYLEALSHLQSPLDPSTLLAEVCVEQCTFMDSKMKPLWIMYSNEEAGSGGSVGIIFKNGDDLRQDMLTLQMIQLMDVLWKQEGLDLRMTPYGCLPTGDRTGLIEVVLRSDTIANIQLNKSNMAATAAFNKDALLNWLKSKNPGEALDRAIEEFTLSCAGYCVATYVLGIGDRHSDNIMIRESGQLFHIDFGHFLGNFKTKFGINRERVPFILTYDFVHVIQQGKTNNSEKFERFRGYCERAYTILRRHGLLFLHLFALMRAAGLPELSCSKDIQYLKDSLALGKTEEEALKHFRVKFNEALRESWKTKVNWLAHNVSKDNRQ
Sequence of recombinant human PI3Kδ (6-His(p110-p85α)) (P27986 whole entry partner): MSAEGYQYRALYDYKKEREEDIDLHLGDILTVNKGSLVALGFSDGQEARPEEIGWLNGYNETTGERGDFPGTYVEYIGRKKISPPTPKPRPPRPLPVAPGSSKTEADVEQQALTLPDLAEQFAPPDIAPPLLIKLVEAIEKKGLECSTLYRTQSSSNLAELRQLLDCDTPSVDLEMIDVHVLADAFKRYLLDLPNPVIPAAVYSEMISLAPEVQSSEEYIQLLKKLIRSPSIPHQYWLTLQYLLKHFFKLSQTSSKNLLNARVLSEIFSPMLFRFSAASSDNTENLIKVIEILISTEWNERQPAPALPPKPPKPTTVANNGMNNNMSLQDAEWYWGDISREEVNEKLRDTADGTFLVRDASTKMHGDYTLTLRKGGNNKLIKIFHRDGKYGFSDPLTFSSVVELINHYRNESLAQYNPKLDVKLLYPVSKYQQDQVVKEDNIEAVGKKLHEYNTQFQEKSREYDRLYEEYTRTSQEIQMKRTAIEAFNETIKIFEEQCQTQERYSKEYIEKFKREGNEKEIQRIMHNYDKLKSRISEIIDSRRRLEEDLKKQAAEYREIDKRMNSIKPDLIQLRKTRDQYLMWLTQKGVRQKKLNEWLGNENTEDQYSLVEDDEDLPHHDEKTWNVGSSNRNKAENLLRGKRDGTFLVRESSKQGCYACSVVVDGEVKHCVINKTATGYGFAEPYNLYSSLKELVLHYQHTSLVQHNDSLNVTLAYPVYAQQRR
Sequence of recombinant human PI3Kβ (6-His(p110-p85α)) (P42338 whole entry): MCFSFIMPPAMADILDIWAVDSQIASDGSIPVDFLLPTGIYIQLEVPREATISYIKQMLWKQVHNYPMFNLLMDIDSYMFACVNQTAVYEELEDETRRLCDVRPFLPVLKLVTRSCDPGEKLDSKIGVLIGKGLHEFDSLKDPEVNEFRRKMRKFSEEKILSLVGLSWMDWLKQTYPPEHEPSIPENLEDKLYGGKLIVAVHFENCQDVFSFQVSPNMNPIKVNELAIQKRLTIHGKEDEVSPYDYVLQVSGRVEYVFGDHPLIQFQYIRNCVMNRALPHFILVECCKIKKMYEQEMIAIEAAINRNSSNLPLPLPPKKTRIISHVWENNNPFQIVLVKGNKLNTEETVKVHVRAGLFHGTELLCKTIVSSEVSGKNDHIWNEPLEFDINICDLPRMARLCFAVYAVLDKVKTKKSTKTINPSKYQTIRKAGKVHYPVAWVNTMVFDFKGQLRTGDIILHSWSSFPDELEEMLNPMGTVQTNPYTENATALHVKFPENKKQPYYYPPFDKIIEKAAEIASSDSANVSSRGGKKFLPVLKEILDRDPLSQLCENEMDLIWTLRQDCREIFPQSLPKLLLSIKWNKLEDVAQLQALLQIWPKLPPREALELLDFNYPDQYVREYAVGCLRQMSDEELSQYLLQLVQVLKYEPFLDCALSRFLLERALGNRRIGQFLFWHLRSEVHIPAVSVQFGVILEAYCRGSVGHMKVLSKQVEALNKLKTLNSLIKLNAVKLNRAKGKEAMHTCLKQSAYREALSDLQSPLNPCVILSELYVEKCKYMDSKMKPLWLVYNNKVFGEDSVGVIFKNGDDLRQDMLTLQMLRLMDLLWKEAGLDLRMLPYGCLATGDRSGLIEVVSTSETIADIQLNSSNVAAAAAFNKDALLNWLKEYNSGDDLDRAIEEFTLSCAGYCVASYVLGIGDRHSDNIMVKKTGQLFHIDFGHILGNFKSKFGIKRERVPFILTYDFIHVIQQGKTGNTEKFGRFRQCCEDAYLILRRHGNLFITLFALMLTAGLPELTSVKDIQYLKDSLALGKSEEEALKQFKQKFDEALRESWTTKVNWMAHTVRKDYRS
Sequence of recombinant human PI3Kβ (6-His(p110-p85α)) (P27986 whole entry partner): as the sequence (P27986 whole entry partner) above
Sequence of recombinant human PI3Kα (6-His(p110-p85α)) (P42336 whole entry): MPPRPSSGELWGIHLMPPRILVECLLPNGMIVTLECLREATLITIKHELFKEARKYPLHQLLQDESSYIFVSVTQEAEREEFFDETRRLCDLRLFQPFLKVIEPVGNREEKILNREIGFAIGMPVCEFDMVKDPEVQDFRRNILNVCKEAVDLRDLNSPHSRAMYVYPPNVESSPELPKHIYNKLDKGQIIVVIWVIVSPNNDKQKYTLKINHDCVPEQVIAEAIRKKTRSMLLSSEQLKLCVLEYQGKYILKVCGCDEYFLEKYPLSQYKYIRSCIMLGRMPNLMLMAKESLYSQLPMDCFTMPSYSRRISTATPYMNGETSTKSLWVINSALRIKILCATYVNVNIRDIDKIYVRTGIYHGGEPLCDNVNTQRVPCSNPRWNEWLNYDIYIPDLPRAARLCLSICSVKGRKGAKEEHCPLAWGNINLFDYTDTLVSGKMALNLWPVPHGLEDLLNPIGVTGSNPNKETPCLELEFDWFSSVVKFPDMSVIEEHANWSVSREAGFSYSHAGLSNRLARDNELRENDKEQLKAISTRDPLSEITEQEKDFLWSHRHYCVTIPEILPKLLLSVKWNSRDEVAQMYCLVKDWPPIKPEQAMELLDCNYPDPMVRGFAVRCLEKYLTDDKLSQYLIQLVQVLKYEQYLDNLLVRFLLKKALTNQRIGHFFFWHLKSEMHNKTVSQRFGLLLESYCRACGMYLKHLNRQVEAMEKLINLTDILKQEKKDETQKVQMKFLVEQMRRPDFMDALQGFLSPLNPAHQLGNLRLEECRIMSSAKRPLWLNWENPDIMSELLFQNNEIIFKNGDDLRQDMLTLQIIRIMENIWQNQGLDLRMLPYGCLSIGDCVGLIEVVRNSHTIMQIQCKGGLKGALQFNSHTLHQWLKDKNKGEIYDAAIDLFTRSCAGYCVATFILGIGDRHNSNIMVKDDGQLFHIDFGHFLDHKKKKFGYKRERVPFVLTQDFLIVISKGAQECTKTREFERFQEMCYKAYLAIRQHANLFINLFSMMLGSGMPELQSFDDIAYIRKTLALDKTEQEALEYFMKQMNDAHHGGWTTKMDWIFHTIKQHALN
Sequence of recombinant human PI3Kα (6-His(p110-p85α)) (P27986 whole entry partner): as the sequence (P27986 whole entry partner) above
Sequence of recombinant human PI3Kγ ((aa144-1102)-6His) (P48736 144-1102): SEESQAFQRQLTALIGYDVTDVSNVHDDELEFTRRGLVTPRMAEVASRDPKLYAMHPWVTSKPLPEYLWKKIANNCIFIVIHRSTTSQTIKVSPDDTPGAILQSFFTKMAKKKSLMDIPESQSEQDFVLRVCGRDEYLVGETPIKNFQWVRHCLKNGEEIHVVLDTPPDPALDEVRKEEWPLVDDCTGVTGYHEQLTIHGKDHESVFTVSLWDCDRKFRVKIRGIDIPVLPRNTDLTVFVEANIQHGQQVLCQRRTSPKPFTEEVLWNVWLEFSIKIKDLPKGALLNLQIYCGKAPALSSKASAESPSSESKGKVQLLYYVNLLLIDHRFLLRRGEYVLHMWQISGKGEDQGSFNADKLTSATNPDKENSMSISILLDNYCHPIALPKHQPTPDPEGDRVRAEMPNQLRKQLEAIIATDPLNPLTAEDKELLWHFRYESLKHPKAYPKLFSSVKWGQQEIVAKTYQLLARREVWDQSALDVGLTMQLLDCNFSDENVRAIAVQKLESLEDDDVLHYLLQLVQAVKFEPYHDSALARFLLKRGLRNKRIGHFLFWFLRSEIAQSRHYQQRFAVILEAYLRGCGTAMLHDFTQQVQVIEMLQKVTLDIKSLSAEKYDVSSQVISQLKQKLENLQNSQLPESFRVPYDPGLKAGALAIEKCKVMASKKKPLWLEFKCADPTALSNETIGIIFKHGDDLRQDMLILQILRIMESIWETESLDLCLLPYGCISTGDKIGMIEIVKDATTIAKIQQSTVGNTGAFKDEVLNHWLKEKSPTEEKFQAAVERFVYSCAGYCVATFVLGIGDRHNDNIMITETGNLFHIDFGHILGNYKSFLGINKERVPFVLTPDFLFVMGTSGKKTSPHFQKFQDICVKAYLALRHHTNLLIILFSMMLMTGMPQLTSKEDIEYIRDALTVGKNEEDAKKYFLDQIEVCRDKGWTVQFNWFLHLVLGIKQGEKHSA

Structure (SMILES)	IC50 [1]	IC50 [2]	IC50 [3]	IC50 [4]
Cc1nc(Nc2cccc(N3CCNC3=O)n2)sc1-c1cc2c(c(S(=O)(=O)NC(C)C)c1)C(=O)N([C@@H](C)C(F)(F)F)C2 [Example 30, 6-(4-Methyl-2-{[6-(2-oxoimidazolidin-1-yl)pyridin-2-yl]amino}-1,3-thiazol-5-yl)-3-oxo-N-(propan-2-yl)-2-[(2S)-1,1,1-trifluoropropan-2-yl]-2,3-dihydro-1H-isoindole-4-sulfonamide]	74 nM	722 nM	0.5 nM	1.4 nM
Cc1nc(Nc2cccc(N3CCCC3=O)n2)sc1-c1cc2c(c(S(=O)(=O)NC3COC3)c1)C(=O)N([C@@H](C)C1CC1)C2 [Example 32, 2-[(1S)-1-Cyclopropylethyl]-6-(4-methyl-2-{[6-(2-oxopyrrolidin-1-yl)pyridin-2-yl]amino}-1,3-thiazol-5-yl)-N-(oxetan-3-yl)-3-oxo-2,3-dihydro-1H-isoindole-4-sulfonamide]	140 nM	2060 nM	0.7 nM	1.3 nM
Cc1nc(Nc2cccc(N3CCOC3=O)n2)sc1-c1cc2c(c(S(=O)(=O)NC3COC3)c1)C(=O)N([C@@H](C)C1CC1)C2 [Example 33, 2-[(1S)-1-Cyclopropylethyl]-6-(4-methyl-2-{[6-(2-oxo-1,3-oxazolidin-3-yl)pyridin-2-yl]amino}-1,3-thiazol-5-yl)-N-(oxetan-3-yl)-3-oxo-2,3-dihydro-1H-isoindole-4-sulfonamide]	472 nM	3420 nM	1.4 nM	1.2 nM
Cc1nc(Nc2cccc(N3CCNC3=O)n2)sc1-c1cc2c(c(S(=O)(=O)NC3COC3)c1)C(=O)N([C@@H](C)C1CC1)C2 [Example 34, 2-[(1S)-1-Cyclopropylethyl]-6-(4-methyl-2-{[6-(2-oxoimidazolidin-1-yl)pyridin-2-yl]amino}-1,3-thiazol-5-yl)-N-(oxetan-3-yl)-3-oxo-2,3-dihydro-1H-isoindole-4-sulfonamide]	30 nM	927 nM	0.5 nM	0.8 nM
Cc1nc(Nc2cccc(N3CCCOC3=O)n2)sc1-c1cc2c(c(S(=O)(=O)NC3COC3)c1)C(=O)N([C@@H](C)C1CC1)C2 [Example 35, 2-[(1S)-1-Cyclopropylethyl]-6-(4-methyl-2-{[6-(2-oxo-1,3-oxazinan-3-yl)pyridin-2-yl]amino}-1,3-thiazol-5-yl)-N-(oxetan-3-yl)-3-oxo-2,3-dihydro-1H-isoindole-4-sulfonamide]	53 nM	484 nM	0.9 nM	1 nM
Cc1nc(Nc2cccc(N3CCCCC3=O)n2)sc1-c1cc2c(c(S(=O)(=O)NC3COC3)c1)C(=O)N([C@@H](C)C(F)(F)F)C2 [Example 36, 6-(4-Methyl-2-{[6-(2-oxopiperidin-1-yl)pyridin-2-yl]amino}-1,3-thiazol-5-yl)-N-(oxetan-3-yl)-3-oxo-2-[(2S)-1,1,1-trifluoropropan-2-yl]-2,3-dihydro-1H-isoindole-4-sulfonamide]	50 nM	113 nM	1 nM	1.2 nM
Cc1nc(Nc2cccc(N3CCCC3=O)n2)sc1-c1cc2c(c(S(=O)(=O)NC3COC3)c1)C(=O)N([C@@H](C)C(F)(F)F)C2 [Example 37, 6-(4-Methyl-2-{[6-(2-oxopyrrolidin-1-yl)pyridin-2-yl]amino}-1,3-thiazol-5-yl)-N-(oxetan-3-yl)-3-oxo-2-[(2S)-1,1,1-trifluoropropan-2-yl]-2,3-dihydro-1H-isoindole-4-sulfonamide]	67 nM	395 nM	0.6 nM	1.1 nM
CNS(=O)(=O)c1cc(-c2sc(Nc3cccc(N4CCCOC4=O)n3)nc2C)cc2c1C(=O)N(C(C)(C)C)C2 [Example 38, 2-tert-Butyl-N-methyl-6-(4-methyl-2-{[6-(2-oxo-1,3-oxazinan-3-yl)pyridin-2-yl]amino}-1,3-thiazol-5-yl)-3-oxo-2,3-dihydro-1H-isoindole-4-sulfonamide]	84 nM	65 nM	1.8 nM	0.8 nM
